Structures can show the parent of a compound that is named as a salt.
Molecular target: T1, hBUB1 (Homo sapiens, UniProt O43683)
T1 construct: purchased Carna Biosciences 05-187
Test: hBUB1 kinase activity assay (biochemical fluorescence polarization assay, IMAP)
Conditions: BUB1/BUB3 3.26 nM, ATP 15 µM, BUB1/BUB3 substrate 75 nM, N=2, n=2; for IC50: read-out: hBUB1 pIC50 (converted)
Method: This protocol describes how the Kinase Activity Assay was performed to determine pIC50 values of compounds of general formula (I) against hBUB1.
Assays were performed in 384-well plates (Greiner, black, flat bottom, 781076) by sequential addition (final concentrations are indicated) of inhibitor (5 µL, 0.3 nM - 1 µM or 3 nM - 10 µM), BUB1/BUB3 (5 µL, 3.26 nM, Carna Biosciences (05-187), lot: 15CBS-0644 D), ATP (5 µL, 15 µM) and BUB1/BUB3 substrate (5 µL, 75 nM, Carna Biosciences (05-187MSSU)), all as 4x working solutions. The final concentration of DMSO was 1%. Assay reactions were stopped by addition of IMAP progressive binding reagent (20 µL, 1200x diluted, Molecular Devices (R8155), lot: 3117896). Each assay included the following controls: (i) a background control (treated with vehicle instead of inhibitor and BUB1/BUB3 substrate), (ii) MIN controls (treated with 5 µM BAY1816032 (MedChem Express) as inhibitor, used as 0% BUB1 activity) and (iii) MAX controls (treated with vehicle instead of inhibitor, used as 100% BUB1 activity). All inhibitors were tested in two separate assays and all inhibitor concentrations were tested in duplicate per assay (N=2, n=2).
For each assay, assay buffer (AB) was freshly prepared and consisted of 20 mM HEPES (prepared by diluting 1 M HEPES, pH 7.2), 5 mM MgCl2, 0.01% Tween-20 and 1 mM DTT. Stocks of inhibitors (in DMSO) were diluted in AB to obtain 4x working solutions (4% DMSO) and 5 µL was added to the assay plate. BUB1/BUB3 (3.26 µM (486 µg/mL) in storage buffer) was diluted in AB to obtain 13.0 nM of which 5 µL was added to all wells of the assay plate. The assay plate was centrifuged (1 min, 200 g) and incubated at RT for 30 min. ATP (4 mM in MilliQ) was diluted in AB to obtain 60 µM of which 5 µL was added to each well. BUB1/BUB3 substrate (1 mM) was diluted in 20 mM HEPES (prepared by diluting 1 M HEPES (pH 7.2) in MilliQ) to obtain 80 µM (this solution was freshly prepared every assay) and further diluted in AB to obtain 300 nM after which 5 µL was added to each well of the assay plate except for background control wells. The assay plate was centrifuged (1 min, 200 g) and incubated at RT in the dark for 180 min. IMAP progressive binding buffer A (5x) and IMAP progressive binding buffer B (5x) were mixed in a ratio to obtain 30% buffer A and 70% buffer B, which was subsequently diluted 5x in MilliQ. IMAP progressive binding reagent was diluted 600x in aforementioned mixture of buffer A and B (to obtain a 2x working solution) of which 20 µL was added to each well of the assay plate. The assay plate was centrifuged (1 min, 200 g) and incubated at RT in the dark for 90 min. Fluorescence polarization was measured on a CLARIOstar plate reader using the following settings: (i) optic settings → excitation = F: 482-16, dichroic = F: LP 504, emission = F: 530-40, (ii) optic = top optic, (iii) speed/precision = maximum precision, (iv) focus adjustment was performed for every assay and (v) gain adjustment was done by setting the target mP value to 35 mP for one of the MIN control wells. Data was normalized between MIN and MAX controls and data was plotted using GraphPad Prism 8.0 using "Nonlinear regression (curve fit)" and "log(inhibitor) vs. normalized response - Variable slope" to determine pIC50 values.
Inhibition is indicated as pIC50 ("-" = not measured). Compounds having an activity designated as "A" provided an pIC50 ≥ 7.0 (IC50 ≤100 nM); compounds having an activity designated as "B" provided an 6.3 ≤ pIC50 < 7.0 (100 nM<IC50 ≤ 500 nM); compounds having an activity designated as "C" provided an 6.0 ≤ pIC50 < 6.3 (500 nM < IC50 ≤ 1 µM); compounds having an activity designated as "D" provided an 6.0 < pIC50 ≤ 5.0 (1 µM < IC50 ≤ 10 µM); and compounds having an activity designated as "E" provided an pIC50 < 5.0 (IC50 >10 µM).

T1 sequence (O43683 whole entry): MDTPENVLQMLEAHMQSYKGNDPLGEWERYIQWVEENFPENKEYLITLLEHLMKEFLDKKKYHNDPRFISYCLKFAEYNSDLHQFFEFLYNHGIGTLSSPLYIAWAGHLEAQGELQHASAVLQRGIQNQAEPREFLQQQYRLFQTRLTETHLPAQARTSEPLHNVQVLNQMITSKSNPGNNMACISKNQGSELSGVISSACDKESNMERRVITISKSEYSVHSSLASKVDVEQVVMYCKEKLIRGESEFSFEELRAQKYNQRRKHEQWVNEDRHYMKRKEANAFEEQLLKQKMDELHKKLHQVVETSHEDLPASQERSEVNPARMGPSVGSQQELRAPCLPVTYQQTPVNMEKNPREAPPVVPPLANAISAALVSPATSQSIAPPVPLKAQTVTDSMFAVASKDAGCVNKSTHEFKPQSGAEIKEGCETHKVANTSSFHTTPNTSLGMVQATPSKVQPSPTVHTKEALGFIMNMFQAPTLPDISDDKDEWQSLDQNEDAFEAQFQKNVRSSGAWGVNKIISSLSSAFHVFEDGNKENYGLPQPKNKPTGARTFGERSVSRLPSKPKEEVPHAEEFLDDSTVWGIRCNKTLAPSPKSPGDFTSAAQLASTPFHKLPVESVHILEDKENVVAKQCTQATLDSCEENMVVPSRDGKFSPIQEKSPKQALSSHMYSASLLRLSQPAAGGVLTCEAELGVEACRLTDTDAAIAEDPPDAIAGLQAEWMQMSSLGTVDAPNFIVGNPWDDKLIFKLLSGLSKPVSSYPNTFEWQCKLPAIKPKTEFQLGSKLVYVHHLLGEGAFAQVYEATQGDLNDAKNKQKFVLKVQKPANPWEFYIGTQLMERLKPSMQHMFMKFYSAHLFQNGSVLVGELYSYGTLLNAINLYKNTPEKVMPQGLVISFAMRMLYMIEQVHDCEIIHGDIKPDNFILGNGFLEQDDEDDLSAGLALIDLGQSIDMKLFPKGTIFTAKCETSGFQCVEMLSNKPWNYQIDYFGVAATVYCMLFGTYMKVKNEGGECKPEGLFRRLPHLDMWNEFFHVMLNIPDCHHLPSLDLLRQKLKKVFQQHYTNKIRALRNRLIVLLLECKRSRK
T1 sequence (O43684 whole entry partner): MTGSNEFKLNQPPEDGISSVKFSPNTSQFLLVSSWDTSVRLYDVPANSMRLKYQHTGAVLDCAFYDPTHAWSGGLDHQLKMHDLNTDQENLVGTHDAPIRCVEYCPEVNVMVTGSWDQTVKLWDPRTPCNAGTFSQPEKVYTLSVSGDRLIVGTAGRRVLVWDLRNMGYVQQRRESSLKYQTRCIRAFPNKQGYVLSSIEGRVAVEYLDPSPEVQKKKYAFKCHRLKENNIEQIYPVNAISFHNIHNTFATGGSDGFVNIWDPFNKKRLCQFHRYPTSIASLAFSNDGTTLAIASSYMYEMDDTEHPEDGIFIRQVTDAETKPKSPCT

SMILES | IC50 | hBUB1 pIC50
c1ccc2c(-c3nccc(Nc4c[nH]nc4-c4nc5ccccc5[nH]4)n3)cccc2c1 [Compound 36, N-(3-(1H-Benzo[d]imidazol-2-yl)-1H-pyrazol-4-yl)-2-(naphthalen-1-yl)pyrimidin-4-amine] |  | D (6.0 < pIC50 ≤ 5.0 (1 µM < IC50 ≤ 10 µM))
COc1ccccc1-c1nccc(Nc2c[nH]nc2-c2nc3ccccc3[nH]2)n1 [Compound 26, N-(3-(1H-Benzo[d]imidazol-2-yl)-1H-pyrazol-4-yl)-2-(2-methoxyphenyl)pyrimidin-4-amine] |  | D (6.0 < pIC50 ≤ 5.0 (1 µM < IC50 ≤ 10 µM))
Cc1ccccc1-c1nccc(Nc2c[nH]nc2-c2nc3ccccc3[nH]2)n1 [Compound 24, N-(3-(1H-benzo[d]imidazol-2-yl)-1H-pyrazol-4-yl)-2-(o-tolyl)pyrimidin-4-amine] |  | D (6.0 < pIC50 ≤ 5.0 (1 µM < IC50 ≤ 10 µM))
c1ccc(-c2nccc(Nc3c[nH]nc3-c3nc4ccccc4[nH]3)n2)cc1 [Compound 23, N-(3-(1H-benzo[d]imidazol-2-yl)-1H-pyrazol-4-yl)-2-phenylpyrimidin-4-amine] |  | D (6.0 < pIC50 ≤ 5.0 (1 µM < IC50 ≤ 10 µM))
CC(C)c1cccc(-c2nccc(Nc3c[nH]nc3-c3nc4ccccc4[nH]3)n2)c1 [Compound 30, N-(3-(1H-Benzo[d]imidazol-2-yl)-1H-pyrazol-4-yl)-2-(3-isopropylphenyl)pyrimidin-4-amine] |  | D (6.0 < pIC50 ≤ 5.0 (1 µM < IC50 ≤ 10 µM))
COc1ccc(-c2nccc(Nc3c[nH]nc3-c3nc4ccccc4[nH]3)n2)cc1 [Compound 34, N-(3-(1H-Benzo[d]imidazol-2-yl)-1H-pyrazol-4-yl)-2-(4-methoxyphenyl)pyrimidin-4-amine] |  | D (6.0 < pIC50 ≤ 5.0 (1 µM < IC50 ≤ 10 µM))
c1ccc2cc(-c3nccc(Nc4c[nH]nc4-c4nc5ccccc5[nH]4)n3)ccc2c1 [Compound 39, N-(3-(1H-Benzo[d]imidazol-2-yl)-1H-pyrazol-4-yl)-2-(naphthalen-2-yl)pyrimidin-4-amine] |  | D (6.0 < pIC50 ≤ 5.0 (1 µM < IC50 ≤ 10 µM))
Cc1ccc(-c2nccc(Nc3c[nH]nc3-c3nc4ccccc4[nH]3)n2)cc1 [Compound 32, N-(3-(1H-Benzo[d]imidazol-2-yl)-1H-pyrazol-4-yl)-2-(p-tolyl)pyrimidin-4-amine] |  | D (6.0 < pIC50 ≤ 5.0 (1 µM < IC50 ≤ 10 µM))
c1ccc2[nH]c(-c3n[nH]cc3Nc3ccnc(-c4cccc5[nH]ncc45)n3)nc2c1 [Compound 38, N-(3-(1H-Benzo[d]imidazol-2-yl)-1H-pyrazol-4-yl)-2-(1H-indazol-4-yl)pyrimidin-4-amine] |  | D (6.0 < pIC50 ≤ 5.0 (1 µM < IC50 ≤ 10 µM))
Clc1ccc(-c2nccc(Nc3c[nH]nc3-c3nc4ccccc4[nH]3)n2)cc1 [Compound 33, N-(3-(1H-Benzo[d]imidazol-2-yl)-1H-pyrazol-4-yl)-2-(4-chlorophenyl)pyrimidin-4-amine] |  | D (6.0 < pIC50 ≤ 5.0 (1 µM < IC50 ≤ 10 µM))

Continued, in another order:

IC50 | SMILES | hBUB1 pIC50
100 to 501 nM | C#Cc1nccc(Nc2c[nH]nc2-c2nc3cc(CN4CCOCC4)ccc3[nH]2)n1 [Compound 15, 2-ethynyl-N-(3-(5-(morpholinomethyl)-1H-benzo[d]imidazol-2-yl)-1H-pyrazol-4-yl)pyrimidin-4-amine] | 
> 10000 nM | c1cc(-c2nccc(Nc3c[nH]nc3-c3nc4ccccc4[nH]3)n2)c2[nH]ccc2c1 [Compound 37, N-(3-(1H-Benzo[d]imidazol-2-yl)-1H-pyrazol-4-yl)-2-(1H-indol-7-yl)pyrimidin-4-amine] | 
501 to 1000 nM | Clc1ccccc1-c1nccc(Nc2c[nH]nc2-c2nc3ccccc3[nH]2)n1 [Compound 25, N-(3-(1H-Benzo[d]imidazol-2-yl)-1H-pyrazol-4-yl)-2-(2-chlorophenyl)pyrimidin-4-amine] | 
100 to 501 nM | Cc1cccc(-c2nccc(Nc3c[nH]nc3-c3nc4ccccc4[nH]3)n2)c1 [Compound 27, N-(3-(1H-Benzo[d]imidazol-2-yl)-1H-pyrazol-4-yl)-2-(m-tolyl)pyrimidin-4-amine] | 
501 to 1000 nM | Clc1ccc(Oc2nccc(Nc3c[nH]nc3-c3nc4cc(CN5CCOCC5)ccc4[nH]3)n2)cc1 [Compound 50, 2-(4-Chlorophenoxy)-N-(3-(5-(morpholinomethyl)-1H-benzo[d]imidazol-2-yl)-1H-pyrazol-4-yl)pyrimidin-4-amine] | 
501 to 1000 nM | Clc1cccc(Oc2nccc(Nc3c[nH]nc3-c3nc4cc(CN5CCOCC5)ccc4[nH]3)n2)c1 [Compound 49, 2-(3-Chlorophenoxy)-N-(3-(5-(morpholinomethyl)-1H-benzo[d]imidazol-2-yl)-1H-pyrazol-4-yl)pyrimidin-4-amine] | 
501 to 1000 nM | COc1cccc(-c2nccc(Nc3c[nH]nc3-c3nc4ccccc4[nH]3)n2)c1 [Compound 29, N-(3-(1H-Benzo[d]imidazol-2-yl)-1H-pyrazol-4-yl)-2-(3-methoxyphenyl)pyrimidin-4-amine] | 
100 to 501 nM | Clc1cccc(-c2nccc(Nc3c[nH]nc3-c3nc4ccccc4[nH]3)n2)c1 [Compound 28, N-(3-(1H-Benzo[d]imidazol-2-yl)-1H-pyrazol-4-yl)-2-(3-chlorophenyl)pyrimidin-4-amine] | 
501 to 1000 nM | c1cnn(-c2nccc(Nc3c[nH]nc3-c3nc4cc(CN5CCOCC5)ccc4[nH]3)n2)c1 [Compound 20, N-(3-(5-(Morpholinomethyl)-1H-benzo[d]imidazol-2-yl)-1H-pyrazol-4-yl)-2-(1H-pyrazol-1-yl)pyrimidin-4-amine] | 
501 to 1000 nM | c1ccc(CCOc2nccc(Nc3c[nH]nc3-c3nc4cc(CN5CCOCC5)ccc4[nH]3)n2)cc1 [Compound 19, N-(3-(5-(morpholinomethyl)-1H-benzo[d]imidazol-2-yl)-1H-pyrazol-4-yl)-2-phenethoxypyrimidin-4-amine] | 
501 to 1000 nM | c1csc(-c2nccc(Nc3c[nH]nc3-c3nc4cc(CN5CCOCC5)ccc4[nH]3)n2)c1 [Compound 22, N-(3-(5-(morpholinomethyl)-1H-benzo[d]imidazol-2-yl)-1H-pyrazol-4-yl)-2-(thiophen-2-yl)pyrimidin-4-amine hydrochloride] | 
501 to 1000 nM | c1cc(Nc2c[nH]nc2-c2nc3cc(CN4CCOCC4)ccc3[nH]2)nc(-c2ccsc2)n1 [Compound 21, N-(3-(5-(morpholinomethyl)-1H-benzo[d]imidazol-2-yl)-1H-pyrazol-4-yl)-2-(thiophen-3-yl)pyrimidin-4-amine hydrochloride] | 
501 to 1000 nM | Clc1ccccc1Oc1nccc(Nc2c[nH]nc2-c2nc3cc(CN4CCOCC4)ccc3[nH]2)n1 [Compound 48, 2-(2-Chlorophenoxy)-N-(3-(5-(morpholinomethyl)-1H-benzo[d]imidazol-2-yl)-1H-pyrazol-4-yl)pyrimidin-4-amine] | 
